This note sets out measurements from patent US12466813B2, “PRC1 inhibitors and methods of treatment therewith” (The Regents of the University of Michigan, priority 2018, dated 2025).

The structures appear in SMILES notation.

For the first assay, the system named is TEX cells. In words: Differentiation and CD34 marker of TEX cells. The settings on record: FIG. 4. Format: cell-based. The procedure: FIGS. 4A-F. COMPOUND 1 inhibits PRC1 in TEX cells. FIG. 4A. Inhibition of H2Aub in TEX cells. FIG. 4B. Differentiation of TEX cells upon treatment with COMPOUND 1. […] FIG. 4C. GSEA analysis of TEX cells showing revers of stem cell signature. FIG. 4D. […] FIG. 4E. Gene expression changes upon treatment with COMPOUND 1. FIG. 4F.
Experiments were conducted during development of embodiments herein to develop small molecule inhibitors of PRC1 by targeting the Ring1B-BMI1 E3 ligase. These compounds bind directly to Ring1B-Bmi1 with low-micromolar affinity and inhibit PRC1 in vitro and in cells. […] Experiments were conducted during development of embodiments herein to test COMPOUND 1 in leukemia stem cell models represented by TEX cells (Ref. 22; herein incorporated by reference in its entirety) and M9-ENL1 cells (Ref. 23; herein incorporated by reference in its entirety). […] In some embodiments, COMPOUND 1 and COMPOUND 1 analogs are find use as agents in targeting leukemia and other cancer stem cells.
For `CCc1c(-c2cccc3c2ccn3CCO)[nH]c(C(=O)O)c1-c1ccc(OC)cc1Cl` [COMPOUND 103], the “differentiation of TEX cells” value was “does not induce differentiation”.

The next assay concerns the target T1, RING1B-BMI1 (Homo sapiens, UniProt Q99496).
T1 sequence (Q99496 1-336): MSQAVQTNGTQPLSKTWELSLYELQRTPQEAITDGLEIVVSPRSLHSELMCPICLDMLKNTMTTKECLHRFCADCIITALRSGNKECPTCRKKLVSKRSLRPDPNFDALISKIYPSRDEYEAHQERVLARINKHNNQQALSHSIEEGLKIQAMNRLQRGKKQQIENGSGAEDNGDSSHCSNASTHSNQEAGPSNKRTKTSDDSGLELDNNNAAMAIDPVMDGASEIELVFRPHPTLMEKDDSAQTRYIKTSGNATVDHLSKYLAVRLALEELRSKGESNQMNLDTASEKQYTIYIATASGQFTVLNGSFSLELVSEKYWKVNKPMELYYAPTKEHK
T1 sequence (P35226 1-326 partner): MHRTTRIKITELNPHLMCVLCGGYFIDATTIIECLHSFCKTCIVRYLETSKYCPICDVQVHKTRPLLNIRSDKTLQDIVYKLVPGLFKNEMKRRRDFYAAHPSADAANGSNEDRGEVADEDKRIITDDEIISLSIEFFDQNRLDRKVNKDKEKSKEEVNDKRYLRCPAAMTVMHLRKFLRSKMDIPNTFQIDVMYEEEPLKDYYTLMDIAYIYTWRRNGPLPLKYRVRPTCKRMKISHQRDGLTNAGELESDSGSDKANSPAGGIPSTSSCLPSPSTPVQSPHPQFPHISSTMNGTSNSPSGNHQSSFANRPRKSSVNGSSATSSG
In words: KD classes of Table A (direct binding to Ring1B-Bmi1). The following applies: class given in Table A.
Compound `CCc1c(-c2cccc3c2ccn3CCO)[nH]c(C(=O)O)c1-c1ccc(OC)cc1Cl` [COMPOUND 103] gave a dissociation constant Kd of more than 100 µM. For the compound `CC(C)c1c(-c2cc(F)cc3[nH]ccc23)[nH]c(C(=O)O)c1-c1c(C(F)(F)F)cnc2[nH]ccc12` [compound 248], the Kd is less than 20 µM. Compound `CC(C)c1c(-c2cc(F)cc3[nH]ccc23)[nH]c(C(=O)O)c1-c1ccnc2[nH]c(-c3cc[nH]n3)cc12` [compound 249] had a Kd of less than 20 µM.

Take `CC(C)c1c(-c2cc(F)cc3[nH]ccc23)[nH]c(C(=O)O)c1-c1ccnc2[nH]c(-c3ccsc3)cc12` [compound 250]: the Kd was less than 20 µM. On the same count and under the same terms, the result for `CC(C)c1c(-c2cc(F)cc3[nH]ccc23)[nH]c(C(=O)O)c1-c1ccnc2[nH]c(-c3ccccc3)cc12` [compound 251] reads less than 20 µM; that for `COc1ccc(-c2cc3c(-c4c(C(=O)O)[nH]c(-c5cc(F)cc6[nH]ccc56)c4C(C)C)ccnc3[nH]2)cc1` [compound 252], less than 20 µM. Still for that read-out and setting: in the case of `CC(C)c1c(-c2cc(F)cc3[nH]ccc23)[nH]c(C(=O)O)c1-c1ccnc2[nH]c(-c3cccc(Cl)c3)cc12` [compound 253] it was less than 20 µM. Still for that read-out and setting: the result for `CC(C)c1c(-c2cc(F)cc3[nH]ccc23)[nH]c(C(=O)O)c1-c1ccnc2[nH]c(-c3ccccc3Cl)cc12` [compound 254] reads less than 20 µM. As to `CC(C)c1c(-c2cc(F)cc3[nH]ccc23)[nH]c(C(=O)O)c1-c1ccnc2[nH]c(C3=CCNCC3)cc12` [compound 255], the Kd is less than 20 µM. On the same count and under the same terms, in the case of `CC(C)c1c(-c2cc(F)cc3[nH]ccc23)[nH]c(C(=O)O)c1-c1ccnc2[nH]c(C3=CCN(S(C)(=O)=O)CC3)cc12` [compound 256] it was less than 20 µM; in that of `CC(C)c1c(-c2cc(F)cc3[nH]ccc23)[nH]c(C(=O)O)c1-c1ccnc2[nH]c(C3=CCN(S(=O)(=O)N(C)C)CC3)cc12` [compound 257], less than 20 µM.

The compound `CC(C)c1c(-c2cc(F)cc3[nH]ccc23)[nH]c(C(=O)O)c1-c1cccc2[nH]c(-c3cc[nH]n3)cc12` [compound 258] displayed a Kd of less than 20 µM. The same measure, in the same setting: in the case of `CC(C)c1c(-c2cc(F)cc3[nH]ccc23)[nH]c(C(=O)O)c1-c1cccc2[nH]c(-c3ccccc3)cc12` [compound 259] it was less than 20 µM; in that of `CC(C)c1c(-c2cc(F)cc3[nH]ccc23)[nH]c(C(=O)O)c1-c1cccc2[nH]c(C(=O)Nc3ccccc3)cc12` [compound 260], less than 20 µM; in that of `CC(C)c1c(-c2cc(F)cc3[nH]ccc23)[nH]c(C(=O)O)c1-c1cccc2[nH]c(C(=O)Nc3nccs3)cc12` [compound 261], less than 20 µM. Still for that read-out and setting: the result for `CC(C)c1c(-c2cc(F)cc3[nH]ccc23)[nH]c(C(=O)O)c1-c1cccc2[nH]c(C(=O)NCc3nccs3)cc12` [compound 262] reads less than 20 µM; that for `CC(C)c1c(-c2cc(F)cc3[nH]ccc23)[nH]c(C(=O)O)c1-c1cccc2c1ccn2CS(N)(=O)=O` [compound 263], less than 20 µM; that for `CC(C)c1c(-c2cc(F)cc3[nH]ccc23)[nH]c(C(=O)O)c1-c1cccc2c1ccn2CS(C)(=O)=O` [compound 264], less than 20 µM. Still for that read-out and setting: the result for `CC(C)c1c(-c2cc(F)cc3[nH]ccc23)[nH]c(C(=O)O)c1-c1cccc2c1ccn2CCNS(C)(=O)=O` [compound 265] reads less than 20 µM; that for `CC(C)c1c(-c2cc(F)cc3[nH]ccc23)[nH]c(C(=O)O)c1-c1cccc2c1ccn2CCS(N)(=O)=O` [compound 266], less than 20 µM; that for `CC(C)c1c(-c2cc(F)cc3[nH]ccc23)[nH]c(C(=O)O)c1-c1cccc2c1ccn2CCS(C)(=O)=O` [compound 267], less than 20 µM. Turning to `CC(C)c1c(-c2cc(F)cc3[nH]ccc23)[nH]c(C(=O)O)c1-c1cccc2ncccc12` [compound 268], the Kd is less than 20 µM. The same measure, in the same setting: in the case of `CC(C)c1c(-c2cc(F)cc3[nH]ccc23)[nH]c(C(=O)O)c1-c1c2cc[nH]c2cc2[nH]ccc12` [compound 269] it was less than 20 µM.

The compound `CC(C)c1c(-c2cccc3[nH]ccc23)c(C(=O)O)n2c1-c1cc(F)cc3ccn(c13)CC2` [compound 270] registered a Kd of less than 20 µM. The same measure, in the same setting: the result for `CC(C)c1c(-c2cccc3[nH]ccc23)c(C(=O)O)n2c1-c1cc(F)cc3ccn(c13)[C@@H](C)C2` [compound 271] reads less than 20 µM; that for `CC(C)c1c(-c2cccc3[nH]ccc23)c(C(=O)O)n2c1-c1cc(F)cc3ccn(c13)[C@H](C)C2` [compound 272], less than 20 µM. Same read-out and setting: in the case of `CC(C)c1c(-c2cccc3[nH]ccc23)c(C(=O)O)n2c1-c1cc(F)cc3ccn(c13)S(=O)(=O)C2` [compound 273] it was less than 20 µM; in that of `CC(C)c1c(-c2cccc3[nH]ccc23)c(C(=O)O)n2c1-c1cc(F)cc3ccn(c13)C(=O)C2` [compound 274], less than 20 µM.
